According to patent US20260206755A1, “COMPOUNDS AND COMPOSITIONS HAVING KNOCK-DOWN OR BLOOD FEED INHIBITION ACTIVITY AGAINST INSECT PESTS” (priority 2017, published 2026):

Each compound was assayed on Anopheles stephensi (assay: Anopheles stephensi treated well plate contact test: knockdown and mortality). Settings: Anopheles stephensi; test compound 0.2 ppm, without TFNA-AM, after 24 hours; read-out: mortality % 24, without TFNA-AM.
Format: in vivo
How it was run: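 Well surfaces coated with ethanol solution of compound at a defined concentration, alone or with 2 ppm TFNA-AM, then dried. Five non-blood-fed 2–5-day-old adult females per well, fed 10% sucrose; knockdown scored at 1 hour, mortality at 24 and 48 hours, replicate means reported.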

Q: Which mortality at 0.2 ppm does the source give for `CO/C=C(/C(=O)OC)c1ccccc1COc1cc(C(F)(F)F)nc(OC(C)C)n1` [Fluacrypyrim] here?
A: The mortality at 0.2 ppm was 0%.

Q: Which mortality at 0.2 ppm does the source give for `O=[N+]([O-])c1cc(C(F)(F)F)c(Cl)c([N+](=O)[O-])c1Nc1ncc(C(F)(F)F)cc1Cl` [Fluazinam] here?
A: The mortality at 0.2 ppm was 0%.

Same assay, conditions: Anopheles stephensi; test compound 0.2 ppm, without TFNA-AM, after 48 hours; read-out: mortality % 48, without TFNA-AM

Q: For `CO/C=C(/C(=O)OC)c1ccccc1COc1cc(C(F)(F)F)nc(OC(C)C)n1` [Fluacrypyrim], which mortality at 0.2 ppm is on record?
A: Its mortality at 0.2 ppm is 0%.

Q: With `O=[N+]([O-])c1cc(C(F)(F)F)c(Cl)c([N+](=O)[O-])c1Nc1ncc(C(F)(F)F)cc1Cl` [Fluazinam] as the compound, how does the mortality at 0.2 ppm read?
A: The mortality at 0.2 ppm was 0%.

Same assay, conditions: Anopheles stephensi; test compound 0.2 ppm, without TFNA-AM, knockdown after 1 hour; read-out: Knock Down, without TFNA-AM

Q: With `CO/C=C(/C(=O)OC)c1ccccc1COc1cc(C(F)(F)F)nc(OC(C)C)n1` [Fluacrypyrim] as the compound, how does the pest or weed control at 0.2 ppm read?
A: Its pest or weed control at 0.2 ppm is 0%.

Q: How did the pest or weed control at 0.2 ppm turn out when `O=[N+]([O-])c1cc(C(F)(F)F)c(Cl)c([N+](=O)[O-])c1Nc1ncc(C(F)(F)F)cc1Cl` [Fluazinam] was run?
A: Its pest or weed control at 0.2 ppm is 0%.

Same assay, conditions: Anopheles stephensi; test compound 2 ppm, without TFNA-AM, after 24 hours; read-out: mortality % 24, without TFNA-AM

Q: For `CO/C=C(/C(=O)OC)c1ccccc1COc1cc(C(F)(F)F)nc(OC(C)C)n1` [Fluacrypyrim], which mortality at 2 ppm is on record?
A: The mortality at 2 ppm was 0%.

Q: `O=[N+]([O-])c1cc(C(F)(F)F)c(Cl)c([N+](=O)[O-])c1Nc1ncc(C(F)(F)F)cc1Cl` [Fluazinam] was tested. Which mortality at 2 ppm did it give?
A: Its mortality at 2 ppm is 0%.

Same assay, conditions: Anopheles stephensi; test compound 2 ppm, without TFNA-AM, after 48 hours; read-out: mortality % 48, without TFNA-AM

Q: Which mortality at 2 ppm does the source give for `CO/C=C(/C(=O)OC)c1ccccc1COc1cc(C(F)(F)F)nc(OC(C)C)n1` [Fluacrypyrim] here?
A: The mortality at 2 ppm was 0%.

Q: For `O=[N+]([O-])c1cc(C(F)(F)F)c(Cl)c([N+](=O)[O-])c1Nc1ncc(C(F)(F)F)cc1Cl` [Fluazinam], which mortality at 2 ppm is on record?
A: Its mortality at 2 ppm is 0%.

Same assay, conditions: Anopheles stephensi; test compound 2 ppm, without TFNA-AM, knockdown after 1 hour; read-out: Knock Down, without TFNA-AM

Q: Which pest or weed control at 2 ppm does the source give for `CO/C=C(/C(=O)OC)c1ccccc1COc1cc(C(F)(F)F)nc(OC(C)C)n1` [Fluacrypyrim] here?
A: Its pest or weed control at 2 ppm is 0%.

Q: `O=[N+]([O-])c1cc(C(F)(F)F)c(Cl)c([N+](=O)[O-])c1Nc1ncc(C(F)(F)F)cc1Cl` [Fluazinam] was tested. Which pest or weed control at 2 ppm did it give?
A: Its pest or weed control at 2 ppm is 0%.

Same assay, conditions: Anopheles stephensi; test compound 20 ppm, without TFNA-AM, after 24 hours; read-out: mortality % 24, without TFNA-AM

Q: For `CO/C=C(/C(=O)OC)c1ccccc1COc1cc(C(F)(F)F)nc(OC(C)C)n1` [Fluacrypyrim], which mortality at 20 ppm is on record?
A: Its mortality at 20 ppm is 0%.

Q: Which mortality at 20 ppm does the source give for `O=[N+]([O-])c1cc(C(F)(F)F)c(Cl)c([N+](=O)[O-])c1Nc1ncc(C(F)(F)F)cc1Cl` [Fluazinam] here?
A: Its mortality at 20 ppm is 70%.

Same assay, conditions: Anopheles stephensi; test compound 20 ppm, without TFNA-AM, after 48 hours; read-out: mortality % 48, without TFNA-AM

Q: For `CO/C=C(/C(=O)OC)c1ccccc1COc1cc(C(F)(F)F)nc(OC(C)C)n1` [Fluacrypyrim], which mortality at 20 ppm is on record?
A: Its mortality at 20 ppm is 0%.

Q: For `O=[N+]([O-])c1cc(C(F)(F)F)c(Cl)c([N+](=O)[O-])c1Nc1ncc(C(F)(F)F)cc1Cl` [Fluazinam], which mortality at 20 ppm is on record?
A: The mortality at 20 ppm was 80%.

Same assay, conditions: Anopheles stephensi; test compound 20 ppm, without TFNA-AM, knockdown after 1 hour; read-out: Knock Down, without TFNA-AM

Q: `CO/C=C(/C(=O)OC)c1ccccc1COc1cc(C(F)(F)F)nc(OC(C)C)n1` [Fluacrypyrim] was tested. Which pest or weed control at 20 ppm did it give?
A: The pest or weed control at 20 ppm was 0%.

Q: For `O=[N+]([O-])c1cc(C(F)(F)F)c(Cl)c([N+](=O)[O-])c1Nc1ncc(C(F)(F)F)cc1Cl` [Fluazinam], which pest or weed control at 20 ppm is on record?
A: The pest or weed control at 20 ppm was 20%.

Same assay, conditions: Anopheles stephensi; test compound 200 ppm, without TFNA-AM, after 24 hours; read-out: mortality % 24, without TFNA-AM

Q: `CO/C=C(/C(=O)OC)c1ccccc1COc1cc(C(F)(F)F)nc(OC(C)C)n1` [Fluacrypyrim] was tested. Which mortality at 200 ppm did it give?
A: Its mortality at 200 ppm is 20%.

Q: `O=[N+]([O-])c1cc(C(F)(F)F)c(Cl)c([N+](=O)[O-])c1Nc1ncc(C(F)(F)F)cc1Cl` [Fluazinam] was tested. Which mortality at 200 ppm did it give?
A: Its mortality at 200 ppm is 90%.

Same assay, conditions: Anopheles stephensi; test compound 200 ppm, without TFNA-AM, after 48 hours; read-out: mortality % 48, without TFNA-AM

Q: With `CO/C=C(/C(=O)OC)c1ccccc1COc1cc(C(F)(F)F)nc(OC(C)C)n1` [Fluacrypyrim] as the compound, how does the mortality at 200 ppm read?
A: The mortality at 200 ppm was 80%.

Q: For `O=[N+]([O-])c1cc(C(F)(F)F)c(Cl)c([N+](=O)[O-])c1Nc1ncc(C(F)(F)F)cc1Cl` [Fluazinam], which mortality at 200 ppm is on record?
A: The mortality at 200 ppm was 90%.

Same assay, conditions: Anopheles stephensi; test compound 200 ppm, without TFNA-AM, knockdown after 1 hour, adult females; read-out: Knock Down, without TFNA-AM

Q: With `CO/C=C(/C(=O)OC)c1ccccc1COc1cc(C(F)(F)F)nc(OC(C)C)n1` [Fluacrypyrim] as the compound, how does the pest or weed control at 200 ppm read?
A: Its pest or weed control at 200 ppm is 0%.

Q: For `O=[N+]([O-])c1cc(C(F)(F)F)c(Cl)c([N+](=O)[O-])c1Nc1ncc(C(F)(F)F)cc1Cl` [Fluazinam], which pest or weed control at 200 ppm is on record?
A: Its pest or weed control at 200 ppm is 20%.

Same assay, conditions: test compound 0.2 ppm plus 2 ppm TFNA-AM, after 24 hours

Q: Which “mortality % 24, with TFNA-AM” value does the source give for `CO/C=C(/C(=O)OC)c1ccccc1COc1cc(C(F)(F)F)nc(OC(C)C)n1` [Fluacrypyrim] here?
A: Its value is 60%.

Q: For `O=[N+]([O-])c1cc(C(F)(F)F)c(Cl)c([N+](=O)[O-])c1Nc1ncc(C(F)(F)F)cc1Cl` [Fluazinam], which “mortality % 24, with TFNA-AM” value is on record?
A: Its value is 30%.

Same assay, conditions: test compound 0.2 ppm plus 2 ppm TFNA-AM, after 48 hours

Q: With `CO/C=C(/C(=O)OC)c1ccccc1COc1cc(C(F)(F)F)nc(OC(C)C)n1` [Fluacrypyrim] as the compound, how does the “mortality % 48, with TFNA-AM” value read?
A: The value was 40%.

Q: With `O=[N+]([O-])c1cc(C(F)(F)F)c(Cl)c([N+](=O)[O-])c1Nc1ncc(C(F)(F)F)cc1Cl` [Fluazinam] as the compound, how does the “mortality % 48, with TFNA-AM” value read?
A: The value was 20%.

Same assay, conditions: test compound 0.2 ppm plus 2 ppm TFNA-AM, knockdown after 1 hour

Q: How did the “Knock Down, with TFNA-AM” value turn out when `CO/C=C(/C(=O)OC)c1ccccc1COc1cc(C(F)(F)F)nc(OC(C)C)n1` [Fluacrypyrim] was run?
A: The value was 100%.

Q: Which “Knock Down, with TFNA-AM” value does the source give for `O=[N+]([O-])c1cc(C(F)(F)F)c(Cl)c([N+](=O)[O-])c1Nc1ncc(C(F)(F)F)cc1Cl` [Fluazinam] here?
A: Its value is 100%.

Same assay, conditions: test compound 2 ppm plus 2 ppm TFNA-AM, after 24 hours

Q: `O=[N+]([O-])c1cc(C(F)(F)F)c(Cl)c([N+](=O)[O-])c1Nc1ncc(C(F)(F)F)cc1Cl` [Fluazinam] was tested. Which “mortality % 24, with TFNA-AM” value did it give?
A: The value was 30%.

Same assay, conditions: test compound 2 ppm plus 2 ppm TFNA-AM, after 48 hours

Q: Which “mortality % 48, with TFNA-AM” value does the source give for `CO/C=C(/C(=O)OC)c1ccccc1COc1cc(C(F)(F)F)nc(OC(C)C)n1` [Fluacrypyrim] here?
A: The value was 100%.

Q: For `O=[N+]([O-])c1cc(C(F)(F)F)c(Cl)c([N+](=O)[O-])c1Nc1ncc(C(F)(F)F)cc1Cl` [Fluazinam], which “mortality % 48, with TFNA-AM” value is on record?
A: The value was 20%.

Same assay, conditions: test compound 2 ppm plus 2 ppm TFNA-AM, knockdown after 1 hour

Q: `CO/C=C(/C(=O)OC)c1ccccc1COc1cc(C(F)(F)F)nc(OC(C)C)n1` [Fluacrypyrim] was tested. Which “Knock Down, with TFNA-AM” value did it give?
A: Its value is 100%.

Q: With `O=[N+]([O-])c1cc(C(F)(F)F)c(Cl)c([N+](=O)[O-])c1Nc1ncc(C(F)(F)F)cc1Cl` [Fluazinam] as the compound, how does the “Knock Down, with TFNA-AM” value read?
A: Its value is 100%.

Same assay, conditions: test compound 20 ppm plus 2 ppm TFNA-AM, after 24 hours

Q: For `CO/C=C(/C(=O)OC)c1ccccc1COc1cc(C(F)(F)F)nc(OC(C)C)n1` [Fluacrypyrim], which “mortality % 24, with TFNA-AM” value is on record?
A: Its value is 100%.

Q: Which “mortality % 24, with TFNA-AM” value does the source give for `O=[N+]([O-])c1cc(C(F)(F)F)c(Cl)c([N+](=O)[O-])c1Nc1ncc(C(F)(F)F)cc1Cl` [Fluazinam] here?
A: The value was 100%.

Same assay, conditions: test compound 20 ppm plus 2 ppm TFNA-AM, after 48 hours

Q: With `CO/C=C(/C(=O)OC)c1ccccc1COc1cc(C(F)(F)F)nc(OC(C)C)n1` [Fluacrypyrim] as the compound, how does the “mortality % 48, with TFNA-AM” value read?
A: Its value is 100%.

Q: `O=[N+]([O-])c1cc(C(F)(F)F)c(Cl)c([N+](=O)[O-])c1Nc1ncc(C(F)(F)F)cc1Cl` [Fluazinam] was tested. Which “mortality % 48, with TFNA-AM” value did it give?
A: The value was 100%.

Same assay, conditions: test compound 20 ppm plus 2 ppm TFNA-AM, knockdown after 1 hour

Q: With `CO/C=C(/C(=O)OC)c1ccccc1COc1cc(C(F)(F)F)nc(OC(C)C)n1` [Fluacrypyrim] as the compound, how does the “Knock Down, with TFNA-AM” value read?
A: Its value is 100%.

Q: Which “Knock Down, with TFNA-AM” value does the source give for `O=[N+]([O-])c1cc(C(F)(F)F)c(Cl)c([N+](=O)[O-])c1Nc1ncc(C(F)(F)F)cc1Cl` [Fluazinam] here?
A: The value was 100%.

Same assay, conditions: test compound 200 ppm plus 2 ppm TFNA-AM, after 24 hours

Q: `CO/C=C(/C(=O)OC)c1ccccc1COc1cc(C(F)(F)F)nc(OC(C)C)n1` [Fluacrypyrim] was tested. Which “mortality % 24, with TFNA-AM” value did it give?
A: The value was 100%.

Q: How did the “mortality % 24, with TFNA-AM” value turn out when `O=[N+]([O-])c1cc(C(F)(F)F)c(Cl)c([N+](=O)[O-])c1Nc1ncc(C(F)(F)F)cc1Cl` [Fluazinam] was run?
A: The value was 100%.

Same assay, conditions: test compound 200 ppm plus 2 ppm TFNA-AM, after 48 hours

Q: For `CO/C=C(/C(=O)OC)c1ccccc1COc1cc(C(F)(F)F)nc(OC(C)C)n1` [Fluacrypyrim], which “mortality % 48, with TFNA-AM” value is on record?
A: The value was 100%.

Q: `O=[N+]([O-])c1cc(C(F)(F)F)c(Cl)c([N+](=O)[O-])c1Nc1ncc(C(F)(F)F)cc1Cl` [Fluazinam] was tested. Which “mortality % 48, with TFNA-AM” value did it give?
A: Its value is 100%.

Same assay, conditions: test compound 200 ppm plus 2 ppm TFNA-AM, knockdown after 1 hour

Q: How did the “Knock Down, with TFNA-AM” value turn out when `CO/C=C(/C(=O)OC)c1ccccc1COc1cc(C(F)(F)F)nc(OC(C)C)n1` [Fluacrypyrim] was run?
A: The value was 100%.

Q: For `O=[N+]([O-])c1cc(C(F)(F)F)c(Cl)c([N+](=O)[O-])c1Nc1ncc(C(F)(F)F)cc1Cl` [Fluazinam], which “Knock Down, with TFNA-AM” value is on record?
A: The value was 100%.
